How the values were obtained:
[1] = test system: S. pneumoniae; experiment: Biological activity against bacterial strains: S. pneumoniae; format: cell-based, Streptococcus pneumoniae; set-up: Biological Activity, S. pneumoniae ATCC6301 / Biological Activity, S. pneumoniae ATCC700671 / Biological Activity, S. pneumoniae ATCC700676* / Biological Activity, S. pneumoniae ATCC700677* / Biological Activity, S. pneumoniae ATCC700905* / Biological Activity, S. pneumoniae ATCC700906* / Biological Activity, S. pneumoniae ATCC49619: unit not given here; details: for Biological Activity, S. pneumoniae ATCC6301: strain ATCC6301; for Biological Activity, S. pneumoniae ATCC49619: strain ATCC49619; for Biological Activity, S. pneumoniae ATCC700671: strain ATCC700671; for Biological Activity, S. pneumoniae ATCC700676*: strain ATCC700676, macrolide resistant strain; for Biological Activity, S. pneumoniae ATCC700677*: strain ATCC700677, macrolide resistant strain; for Biological Activity, S. pneumoniae ATCC700905*: strain ATCC700905, macrolide resistant strain; for Biological Activity, S. pneumoniae ATCC700906*: strain ATCC700906, macrolide resistant strain
[2] = test system: S. aureus; experiment: Biological activity against bacterial strains: S. aureus; format: cell-based, Staphylococcus aureus; set-up: unit not given here; details: for Biological Activity, S. aureus ATCC6538p: strain ATCC6538p; for Biological Activity, S. aureus ATCC14154*: strain ATCC14154, macrolide resistant strain; for Biological Activity, S. aureus ATCC29213: strain ATCC29213; for Biological Activity, S. aureus ATCC33591*: strain ATCC33591, macrolide resistant strain; for Biological Activity, S. aureus ATCCBAA-39*: strain ATCCBAA-39, macrolide resistant strain; for Biological Activity, S. aureus ATCCBAA-44*: strain ATCCBAA-44, macrolide resistant strain
[3] = test system: S. epidermidis; experiment: Biological activity against bacterial strains: S. epidermidis; format: cell-based, Staphylococcus epidermidis; details: strain ATCC12228
[4] = test system: E. faecalis; experiment: Biological activity against bacterial strains: E. faecalis; format: cell-based, Enterococcus faecalis; details: strain ATCC51575
[5] = test system: Haemophilus Influenzae; experiment: H. influenzae Activity; format: cell-based
[6] = test system: a series of bacterial strains; experiment: Biological activity against a series of bacterial strains (overall statements); format: cell-based
Excerpt: Results for S. pneumoniae, S. aureus, S. epidermidis, and E. faecalis are provided in Table B. Data on activity against H. influenzae for selected compounds are presented in Table C.

| Structure (SMILES) | Biological Activity, S. pneumoniae ATCC6301 [1] | Biological Activity, S. pneumoniae ATCC49619 [1] | Biological Activity, S. pneumoniae ATCC700671 [1] | Biological Activity, S. pneumoniae ATCC700676* [1] | Biological Activity, S. pneumoniae ATCC700677* [1] | Biological Activity, S. pneumoniae ATCC700905* [1] | Biological Activity, S. pneumoniae ATCC700906* [1] | Biological Activity, S. aureus ATCC6538p [2] | Biological Activity, S. aureus ATCC14154* [2] | Biological Activity, S. aureus ATCC29213 [2] | Biological Activity, S. aureus ATCC33591* [2] | Biological Activity, S. aureus ATCCBAA-39* [2] | Biological Activity, S. aureus ATCCBAA-44* [2] | Biological Activity, S. epidermidis ATCC12228 [3] | Biological Activity, E. faecalis ATCC51575 [4] | H. influenzae Activity, strain ATCC9006 [5] | H. influenzae Activity, strain ATCC49766 [5] | decrease in activity compared to OMT ([5]; strains ATCC9006 and ATCC49766) [fold] | antibiotic / antibacterial activity (in words) [6] | activity of Z-configuration oxime versus its E counterpart (in words) [6] |
| --- | --- | --- | --- | --- | --- | --- | --- | --- | --- | --- | --- | --- | --- | --- | --- | --- | --- | --- | --- | --- |
| CCC1OC(=O)CC(O)C(C)C(OC2OC(C)C(O)C(N(C)C)C2O)C(CC=O)CC(C)C(=NOCCCOc2ccc3ncccc3c2)C=CC(C)=CC1CO (stereo not drawn) [Compound A] | 0.025 | 0.01 | 0.025 | 0.025 | 0.20 | 0.025 | >12.5 | 0.025 | 0.20 | 0.098 | >12.5 | >12.5 | >12.5 | 0.098 | >12.5 | 6.25 | 6.25 | ~4 |  |  |
| CCC1OC(=O)CC(O)C(C)C(OC2OC(C)C(O)C(N(C)C)C2O)C(CC=O)CC(C)C(=NOCCCCOc2ccc3ncccc3c2)C=CC(C)=CC1COC(=O)NCc1ccccc1 (stereo not drawn) [Compound EE] | 0.049 | 0.098 | 0.2 | 0.049 | 0.39 | 0.049 | >12.5 | 3.12 | 6.25 | 6.25 | >12.5 | >12.5 | >12.5 | 6.25 | >12.5 | 12.5 | >12.5 |  |  |  |
| CCC1OC(=O)CC(O)C(C)C(OC2OC(C)C(O)C(N(C)C)C2O)C(CC=O)CC(C)C(=NOCC=Cc2cnc3ccccc3c2)C=CC(C)=CC1COC(=O)NCc1ccccc1 (stereo not drawn) [Compound FF] | 0.2 | 0.2 | 0.2 | 0.049 | 0.2 | 0.098 | >12.5 | 1.56 | 6.25 | 3.12 | 12.5 | >12.5 | >12.5 | 3.12 | >12.5 | 12.5 | 12.5 |  |  |  |
| CCC1OC(=O)CC(O)C(C)C(OC2OC(C)C(O)C(N(C)C)C2O)C(CCN2CC(C)CC(C)C2)CC(C)C(=NO)C=CC(C)=CC1CO (stereo not drawn) [Compound 9, 20-deoxy(3,5-dimethyl-1-piperidine)OMT 9-oxime, reference compound] |  |  |  |  |  |  |  |  |  |  |  |  |  |  |  |  |  |  | no antibiotic activity |  |
| CCC1OC(=O)CC(O)C(C)C(OC2OC(C)C(O)C(N(C)C)C2O)C(CC=O)CC(C)C(=NOCC#Cc2cnc3ccccc3c2)C=CC(C)=CC1CO (single isomer, unassigned) [Compound E] | 0.025 | 0.025 | 0.025 | 0.025 | >12.5 | 0.049 | >12.5 | 0.098 | 0.39 | 0.39 | >12.5 | >12.5 | >12.5 | 0.098 | >12.5 |  |  |  |  | more active than compound D |

— patent US7247617B2, “Sixteen-member macrolide antiinfective agents” (Kosan Biosciences Incorporated, priority 2004, dated 2007)
